SMILES strings stand for the structures. “Also recorded” adds a separate entry of the source.

This test concerns nasal polyps. Description: Two week treatment of nine patients with omeprazole, intranasal budesonide and oral deflazacort (Examples 2 to 10). The format is in vivo, human. Particulars: two weeks, 20 mg omeprazole, 100 μg intranasal budesonide, 3 to 15 mg oral deflazacort. The procedure: Nine patients, each with the conditions shown in the following Table 1, were treated during a two week period. The treatment consisted of 20 mg of omeprazole, 100 μg of intranasal budesonide and 3 to 15 mg of oral deflazacort (deflazacort was used in such a small quantity to ensure the patients' compliance).

Regarding `COc1ccc2[nH]c([S+]([O-])Cc3ncc(C)c(OC)c3C)nc2c1` (stereo not drawn) [omeprazole], the Result entry is “Positive effect” (patient with Nasal Polyposis and aspirin intolerance (Example 9)); “Positive effect; also recorded: Long term benefit” (patients with Nasal Polyposis (Examples 5-8)); “Temporary benefit; also recorded: Positive effect” (patients with Widal's Syndrome (Examples 2-4)).

The values are drawn from patent US6599927B2, “Use of an H+, K+-ATPase inhibitor in the treatment of Widal's Syndrome” (AstraZeneca AB, priority 1996, dated 2003).
